Series [1] deals with ICR mice. The series can be described thus: In vivo safety test with endotoxin-purified apoA-I (Example 7-3). As to the method:
(§1) A solution containing the drug Epothilone B (EpoB) was sonicated in the presence of a surfactant (sodium cholate) to encapsulate the EpoB in micelles composed of the surfactant. Then, apoA-I was added to and mixed with the sonicated solution while the concentration of the surfactant was lowered below its critical micelle concentration by dilution. The remaining surfactant was removed by Bio-bead, and the remaining solution was subjected to centrifugation and size exclusion chromatography, thereby preparing an EpoB-encapsulating apoA-I (hereinafter referred to as ‘EpoB-rHDL’).
(§2) EpoB was dissolved in poly ethylene glycol 300 (PEG 300) and then diluted so that the final concentration of PEG 300 was 30% (v/v). In addition, 30% PEG 300 that is a medium for Epothilone B, and apoA-I were selected as negative controls.
(§3) Twenty-eight (seven per group) 6-week-old female ICR mice were purchased from Orientbio Inc. (Korea). The mice were subjected to veterinary inspection for general health conditions and were acclimated to the laboratory environment for 1 week. An animal test was performed in the Laboratory Animal Research Center, Sungkyunkwan University.
(§4) The test material was administered into the tail vein of the grouped ICR mice at a dose of 100 μL once a week for 4 weeks. To verify the toxicity and safety of the test material, the concentration of EpoB encapsulated in apoA-I was measured, and the poB-encapsulating apoA-I or the free EpoB was administered at a dose higher than the maximum tolerated dose of EpoB. For the first 2 weeks, the test material was administered to the ICR mice at a dose of 10 mg/kg, which corresponds four times the maximum tolerated dose of EpoB, and for the next 2 weeks, it was administered at a high EpoB dose of 81 mg/kg. The control apoA-I was administered at a dose corresponding to the concentration of apoA-I in the EpoB-encapsulating apoA-I.
(§5) To observe changes in the body weight of the mice during the test period, the body weight of the mice was measured every day after the start of the test, and diarrhea, hair loss and quadriplegia as the suspected side effects of epoB were observed.
(§6) For liver toxicity analysis, upon the death of the test animals or at the end of the test, the animals were anesthetized with a mixture of Zoletil and Rompun, and then sera were obtained by blood collection from the abdominal aorta. Alanine transferase (ALT) and aspartate transaminase (AST) in the sera were analyzed by an automatic chemistry analyzer.
(§7) Upon the death of the test animals or at the end of the test, the animals were anesthetized with a mixture of Zoletil and Rompun. Next, the liver was harvested and weighed, and the percentage of the weight of the liver relative to the body weight was comparatively analyzed. In addition, the stomach was harvested and observed to the naked eye.
Using an apoA-I purified to have an endotoxin content of 5-10 EU/mg, an EpoB-encapsulating apoA-I was prepared according to the method described in Example 7-1(1).
EpoB and the EpoB-encapsulating apoA-I were administered at doses of 10 mg/kg and 81 mg/kg, which are higher than the maximum tolerated dose of EpoB.

In series [2] the test system is ICR mice. Description: Primary in vivo test using apoA-I with endotoxin content of more than 10,000 EU/mg (Example 7-2). As to conditions: for body weight loss / ALT / AST / Liver (%): endotoxin-containing apoA-I test; for ALT / AST: serum; for Liver (%): weight of liver relative to body weight. As to the method:
as §1, §2, §3, §4, §5, §6, §7
In a primary test, an EpoB-encapsulating apoA-I was prepared using an apoA-I having an endotoxin content of more than 10,000 EU/mg and was administered to ICR mice once a week for 4 weeks.

The test system of series [3] is breast cancer cell line ZR-75-1. Description: MTT cell viability assay, 72 hours. The note with it: ZR-75-1, overexpresses SR-B1, 72 hours. The series is classed as cell-based. Here is the method:
(§8) The MTT assay was performed in the following manner: First, an MTT concentrate obtained by dissolving 3-(4,5-dimethyl-2-thiazolyl)-2,5-diphenyl-2H-tetrazolium bromide (MTT, Calbiochem) in PBS at a concentration of 5 mg/mL was filtered and diluted (10%) to prepare an MTT solution. Meanwhile, the medium and the drug were removed from the cells treated with the drug or the drug-encapsulating apoA-I, and then 100 μL of the prepared MIT solution was seeded into each well and allowed to react at 37° C. in 5% CO2 for 3 hours. After completion of the reaction, the medium and the MTT solution were removed, and 100 μL of 100% DMSO was seeded into each well and allowed to react at room temperature for 20 minutes under a light-shielded condition. After completion of the secondary reaction, the absorbance of the sample at 570 nm was measured using a spectrophotometer (Spectra M2, Molecular device), and the measured value was substituted into the following equation to determine cell viability: […]
(§9) In addition, the cancer cells were treated with free EpoB or the EpoB-encapsulating apoA-I at various EpoB concentrations for 72 hours, and the cell viability for each drug was measured using an MTT (3-(4,5-dimethylthiazol-2-yl)-2,5-diphenyltetrazolium bromide) assay. […]

Series [4] has as its system colorectal cancer cell line Caco-2. Description: MTT cell viability assay, 72 hours. It counts as cell-based. As to conditions: Caco-2, overexpresses SR-B1, 72 hours. As to the method: as §8, §9
Where [5] appears, read: high dose 81 mg/kg, week 3 and 4.
[6] abbreviates: each ICR mouse (No. 1-7), * raised by hemolysis, listed as apoA-1.
[7] abbreviates: group average (total), hemolysis values excluded.

Where “and” joins values, the source holds several entries; their conditions need not be identical. Equal entries are not always repeated.

With `C/C(=C\c1csc(C)n1)[C@@H]1C[C@@H]2O[C@]2(C)CCC[C@H](C)[C@H](O)[C@@H](C)C(=O)C(C)(C)[C@@H](O)CC(=O)O1` [EpoB, Epothilone B, reference compound], the “adverse effects in appearance examination” value in the series with ICR mice [1] (10 mg/kg at week 1 and week 2) is “no adverse effects were observed”. Moreover, the “gastric hypersensitivity caused by abdominal lymphadenopathy” value in the series with ICR mice [1] (autopsy) was “observed in the control group”. Further, the “Liver (%)” value with ICR mice [1] (each ICR mouse (No. 1-7)) is 3.45% and 4.19% and 4.85% and 6.48% and 3.79% and 5.12% and 4.33%. Besides, in the series with ICR mice [1] (setting [5]), the hair loss result is “hair loss occurred”; the quadriplegia result is “quadriplegia”; the “survival of the mice” value was “dead at week 3 and week 4”. Moreover, the body weight loss result in the series with ICR mice [1] (high dose 81 mg/kg, week 3 and 4, EpoB values are of individual animals, 81 mg/kg) is “about 25% and 7-17% and about 11% and 11.5%”. For the same compound, the “decrease of AST/ALT ratio compared to control group administered with EpoB” value with ICR mice [1] (mouse, in vivo) is “about 47%”. Also, the survival rate with ICR mice [2] (22 days after the start of administration, tail vein once a week, endotoxin-containing apoA-I) was 100%. Further, in the series on ICR mice [2], the body weight loss result is “showed a body weight loss”, the ALT was 18.1 ± .38 U/L, the AST came out at 45.6 ± 9.3 U/L and the “Liver (%)” value is given as 4.7 ± 0.3%. Further, the “cell viability compared to treatment with the EpoB-encapsulating apoA-I” value in series [3] is “higher cell viability”. Besides, the “cell viability compared to treatment with the EpoB-encapsulating apoA-I” value in series [4] is recorded as “higher cell viability”.

In the case of “apoA-I: recombinant His-tagged human apolipoprotein A-I, 28 kDa, 243 amino acids; carrier protein and negative control”, in the series on ICR mice [1] (setting [6]), the ALT was 27 U/L and 25 U/L and 29 U/L and 21 U/L and 19 U/L and 15 U/L and 16 U/L; the AST is 64 U/L and 73 U/L and 56 U/L and 48 U/L and 69 U/L and 41 U/L and 49 U/L; the AST/ALTT was 2.37 and 2.92 and 1.93 and 2.29 and 3.63 and 2.73 and 3.06. For the same compound, the “Liver (%)” value in the series with ICR mice [1] (each ICR mouse (No. 1-7), listed as apoA-1) was 3.83% and 3.55% and 4.87% and 3.42% and 4.03% and 5% and 4.13%. Moreover, the “Liver (%)” value in the series with ICR mice [1] (group average (total)) amounted to 4.12 ± 0.57%. In addition, in the series with ICR mice [1] (setting [7]), the ALT is given as 21.71 ± 5.03 U/L, the AST came to 57.14 ± 11.03 U/L and the AST/ALT was determined as 2.70 ± 0.52. The “survival, body weight change and hair loss” value with ICR mice [1] (high dose of about 266 mg/kg) is “did not affect the survival, body weight change and hair loss”. Besides, in the series on ICR mice [2], the body weight loss entry was “higher body weight loss”, the ALT was determined as 34.4 ± 16.9 U/L, the AST stood at 52.9 ± 13.2 U/L and the “Liver (%)” value was determined as 6 ± 1.1%. Besides, the toxicity entry in the series on ICR mice [2] (once a week for 4 weeks, apoA-I with endotoxin more than 10,000 EU/mg) was “toxicity was observed”.

These data come from US20150037372A1, “pH-Responsive High-Density Lipoprotein-Like Particle Complex” (RESEARCH & BUSINESS FOUNDATION SUNGKYUNKWAN UNIVERSITY, priority 2012, published 2015).
